Results: patent US4590209A, “Alkoxy-acyl carnitines and pharmaceutical compositions containing same” (Sigma-Tau Industrie Farmaceutiche Riunite S.p.A., priority 1980, dated 1986)
Structures can show the parent of a compound that is named as a salt.

Key:
[1] = Acute toxicity (LD50), Weil method; settings: mouse, in vivo, ip; mice, intraperitoneal; read-out: i.p. LD50
Description: Acute toxicity was investigated by using the method disclosed by Weil C. S. in "Tables for convenient calculation of median-effective dose (LD50 or ED50) and instructions in their use", Biometrics, 249-253, 1952.
The tolerance of the compounds under examination was investigated in mice after administration by the intraperitoneal or oral route. […] (see the Table).

[2] = tested on: adrenaline; assay: Adrenaline-antagonizing effect (adrenaline-induced mortality); format: in vivo, male Albino Swiss mice; settings: mice, adrenaline after 30 minutes, mortality checked for 36 hours
Procedure: Groups of ten male Albino Swiss mice, weighing 12-22 g, were intraperitoneally administered either with the compounds of the present invention or with saline (control) and, after 30 minutes, with adrenaline (treated) at a dose capable of bringing about death to 100% of the control animals due to ventricular fibrillation and cardiac lesions ensuing from increase in frequency, pressure and oxygen uptake from the myocardium.
Mortality was checked for 36 hours and the effect of the compounds expressed as percentage of surviving animals, is shown in the Table.

[3] = tested on: mice; assay: Antiarrhythmic / antifibrillatory effect, aconitine-induced arrhythmia (Nwangwu et al.); format: in vivo
Procedure: In order to evaluate the antiarrhythmic activity of the carnitine derivatives of this invention studied with in vivo tests in addition to and in comparison with the currently employed in vitro tests, the method disclosed by Nwangwu et al. (Arch. Inc. Pharmacodyn., 1977, 229, 219) was used.
According to this method an aconitine solution is injected into the caudal vein of mice and the onset time of arrhythmia and tachycardia after 2 to 60 minutes from administration of the compounds under examination is recorded.
The antiarrhythmic activity calculated from the increase in the latency time of the onset of the arrhythmias of the treated animals in comparison with the controls, is illustrated in the Table.

[4] = tested on: rabbit isolated heart; assay: Inotropic effect on isolated rabbit heart (Langendorff) after anoxia; settings: dose 10^-5 gl^-1, 10 minutes from the interruption of the anoxic period, percentage increase against controls
Procedure: Rabbit hearts isolated by the Langendorff method were perfused with oxygenized Ringer solution at 38.2° C. The isometric contractions, electrogardiogram and coronary flow were recorded using a "Battaglia-Rangoni" polygraph. By removing the oxygen from the perfusion fluid, metabolic damage was induced in the cardiac muscle, up to an 80% reduction in the cardiac contractile force.
Under these conditions of prolonged anoxia the aerobic glycolysis of the myocardium is slowed down, accompanied by the storage of acid catabolites due to both the accumulation of pyruvic acid and its conversion to lactic acid which cannot be utilized because of the depression of pyridine enzymes, such as LDH (lactodehydogenase). This has repercussions on the anaerobic glycolysis affecting an ever increasing number of enzymes, accompanied by a progressive and increasingly critical exhaustion of the myocardium. Thus a whole series of cardiac muscle fatigue levels occurs which can be observed by the behavior of the examined parameters, namely the contractile force, coronary flow, heart rate and cardiac rhythm. As soon as the contractile force was reduced by 80%, the perfusion fluid was once again oxygenized either without adding other compounds (controls) or with the addition of the compounds under examination.
In the Table there are shown the percentage value of increase against the controls.

Row | Structure (SMILES) | LD50 [1] [mg/kg] | Antiadrenaline activity, % mortality reduction ([2]; dose 50 mg kg^-1 i.p.) [%] | Antifibrillatory activity, % reduction ([3]; dose 25 mg kg^-1 i.v.) [%] | Inotropic effect, % of controls [4] | Antiadrenaline activity, % mortality reduction ([2]; dose 450 mg kg^-1 i.p.) [%] | Antifibrillatory activity, % reduction ([3]; dose 300 mg kg^-1 i.v.) [%]
1 | COCCCC(=O)OC(CC(=O)O)C[N+](C)(C)C (centres unmarked) [R = 4-methoxybutyryl, 4-methoxybutyryl carnitine] | 1850 | 78 | 85 | +85% | – | –
2 | CCOCCC(=O)OC(CC(=O)O)C[N+](C)(C)C (centres unmarked) [R = 3-ethoxypropionyl, 3-ethoxypropionyl carnitine hydrochloride] | 1300 | – | – | +95% | 75 | 80
